Data published in patent publication US20040014217A1, “Methods of transfection” (priority 2000, published 2004).

How the values were obtained:
[1] = test system: normal and CF epithelial cell lines; experiment: Transfection of sub-confluent and confluent airway epithelial cell lines (summary of description); format: cell-based, human
Description: However, all the cell lines tested were transfected under conventional conditions for transfection, that is to say, the cells were sub-confluent. It has been reported that mitosis is required for efficient transformation using cationic liposomes and also when using peptide-based transformation systems (Wilke, 1996; Tseng 1999; Brunner 2000). Confluent cells and/or cells treated with inhibitors of DNA polymerase such as aphidicolin are non-mitotic and transfect with polycationic vectors with low efficiency. The major cell limiting step is considered to be delivery of the transfected nucleic acid into the nucleus. Transportation of the nucleic acid through the cytoplasm to the nucleus is slow and the pores in the nuclear envelope are too small to permit rapid entry of the transfected nucleic acid. It is generally accepted that sub-confluent cultures, in which the cells are dividing, should be used for transfection. We attempted transfection with the transfection complexes of WO98/54347 but using cell line cultures that were confluent i.e. effectively non-mitotic.
The present invention is based on the surprising observation that the use of EGTA with a transfection vector comprising DNA, an integrin-binding component, a polycationic nucleic acid-binding component, and a lipid component, enhances transfection efficiency of confluent cells, which are slowly dividing or non-dividing i.e. substantially non-mitotic cells, in vitro and in vivo.
In accordance with the present invention integrin-targeted transfection vector complexes comprising peptide 6 above, which is an α5β1-targeted peptide, linked to oligolysine comprising 16 lysines i.e. K16, (component I); lipofectin (component L); and a reporter gene (component D) were used with EGTA for transfection. Sub-confluent normal and CF epithelial cell lines were transfected with the green fluorescent report gene and transfection efficiencies of 40 to 50% were achieved. Cells were then cultured in confluent monolayers to model more closely airway structure. […]

[2] = test system: Human airway epithelial (HAE) cells; experiment: GFP transfection of HAE cells with or without EGTA (FACS), Example 13; format: cell-based; conditions: EGTA 1 mM
Experimental: Human airway epithelial (HAE) cells, type HEAO— were seeded at 80% into 24 well plates. The cells were grown in Modified Eagle Medium (MEM) obtained from Life Technologies (Paisley, Scotland) supplemented with 10% foetal calf serum and 2 mM L-glutamine to form cultures of confluent cells. Subconfluent cultures of the same cells were also prepared.
The reporter genes used were a green fluorescent protein (GFP) reporter gene and a luciferase reporter gene. The GFP reporter gene was used in the form of plasmid pEGFP-N1, obtained from Clontech. The luciferase reporter gene was used in the form of construct pCILuc consisting of the firefly luciferase gene (Luc) inserted into the expresssion vector pCI (Promega, Southampton, England)
For these in vitro experiments peptide 12 [K]16XSXGACRRETAWACG (X: ε amino hexanoic acid), SEQ.ID.NO.: 26, was used. […]
Transfection levels using the luciferase reporter gene was measured as described in the Material and methods section. In the case of the GFP reporter gene, after harvesting the cells were analysed by fluorescence activated cell sorting (FACS) for quantification of the number of fluorescent cells.

[3] = test system: Human airway epithelial (HAE) cells; experiment: Luciferase (pCILuc) transfection of HAE cells, Example 13; format: cell-based
Experimental: Transfection vector complexes were prepared as described in the Material and Methods section, see also Example 15. The complexes were prepared using 4 μg of the peptide, 0.75 μg of lipofectin and 1 μg of the reporter gene. All components and the vector complex were made up in OptiMEM (Life Technologies, Inc.). EGTA (Sigma) at a concentration of 100 mM in water was added to the transfection vector complex preparation at one hundredth of the volume of the vector complex, giving a final EGTA concentration of 1 mM.
The EGTA/vector complex mixture was added to the cultures, which were then harvested two days later. As controls, cultures were treated with OptiMEM medium alone and with the transfection vector complex without EGTA.
We obtained essentially the same results using the luciferase reporter gene instead of GFP. Transfections ere carried out using the transfection vector prepared as described above with the construct pCILuc, with and without EGTA, as described above. Luciferase assays were performed on cell-free extracts of harvested cells using a kit obtained from Promega using an Anthos Lucy 1 Luminometer. As with the GFP experiments, luciferase levels were enhanced approximately four-fold in confluent cells treated with EGTA compared with transfections performed without EGTA. […]

[4] = test system: confluent epithelial cells; experiment: Transepithelial resistance after EGTA exposure; conditions: 2 mM EGTA; data not shown

In the case of `O=C(O)CN(CCOCCOCCN(CC(=O)O)CC(=O)O)CC(=O)O` [EGTA, ethylene glycol-bis(β-aminoethyl ether)-N,N,N′,N′-tetraacetic acid], the “effect on transfection efficiency of sub-confluent cells” value [1] is reported as “no effect”, the “increase of transfection efficiency of airway epithelial cells in vitro” value ([1]; green fluorescent protein and luciferase reporter genes) is reported as “about four-fold” and the “transfection efficiency, confluent cells co-treated with EGTA” value ([1]; green fluorescent reporter gene) is reported as 20 to 30%. The “effect on efficiency of transfection of sub-confluent cells” value [2] was “no effect”, the “increase of transfection levels of confluent cells” value [2] was “four-fold” and the “enhancement of luciferase levels in confluent cells versus transfection without EGTA” value ([3]; pCILuc) was “approximately four-fold”. The “transfection after pre-incubation of the cells with EGTA” value ([3]; pre-incubation before vector) was “no better than the results without EGTA”, the “recovery of transepithelial resistance after removal” value [4] was 16 to 18 h and the “time after exposure at which transepithelial resistance dropped” value [4] was “about 10 minutes”.
